Activity calls are given as the source filed them. The rule behind the calls is not given here.
Assays:
Mus musculus [1] = assay: Anticonvulsant activity in F-1 albino mouse assessed as protection against 32 mA current-induced seizure at 300 mg/kg, ip pretreated at 2 hrs by maximal electroshock seizure test; type: functional, organism-based
[2] = Neurotoxicity in F-1 albino mouse at 300 mg/kg, ip after 0.5 hrs by rotarod test; type: toxicity, organism-based; conditions: in vivo
[3] = Neurotoxicity in F-1 albino mouse at 30 mg/kg, ip after 0.5 hrs by rotarod test; type: toxicity, organism-based; conditions: in vivo
[4] = Neurotoxicity in F-1 albino mouse at 100 mg/kg, ip after 0.5 hrs by rotarod test; type: toxicity, organism-based; conditions: in vivo
Mus musculus [5] = assay: Anticonvulsant activity in F-1 albino mouse assessed as protection against 32 mA current-induced seizure at 100 mg/kg, ip pretreated at 0.5 hrs by maximal electroshock seizure test; type: functional, organism-based
Mus musculus [6] = assay: Anticonvulsant activity in F-1 albino mouse assessed as protection against 32 mA current-induced seizure at 30 mg/kg, ip pretreated at 2 hrs by maximal electroshock seizure test; type: functional, organism-based
Mus musculus [7] = assay: Anticonvulsant activity in F-1 albino mouse assessed as protection against 32 mA current-induced seizure at 300 mg/kg, ip pretreated at 0.5 hrs by maximal electroshock seizure test; type: functional, organism-based
Mus musculus [8] = assay: Anticonvulsant activity in F-1 albino mouse assessed as protection against 32 mA current-induced seizure at 100 mg/kg, ip pretreated at 2 hrs by maximal electroshock seizure test; type: functional, organism-based
Mus musculus [9] = assay: Anticonvulsant activity in F-1 albino mouse assessed as protection against 32 mA current-induced seizure at 30 mg/kg, ip pretreated at 0.5 hrs by maximal electroshock seizure test; type: functional, organism-based
[10] = Neurotoxicity in F-1 albino mouse at 30 mg/kg, ip after 2 hrs by rotarod test; type: toxicity, organism-based; conditions: in vivo
[11] = Neurotoxicity in F-1 albino mouse at 100 mg/kg, ip after 2 hrs by rotarod test; type: toxicity, organism-based; conditions: in vivo
[12] = Neurotoxicity in F-1 albino mouse at 300 mg/kg, ip after 2 hrs by rotarod test; type: toxicity, organism-based; conditions: in vivo
Mus musculus [13] = assay: Anticonvulsant activity in F-1 albino mouse assessed as protection against 32 mA current-induced seizure at 100 mg/kg, ip pretreated at 2 hrs before current challenge by 6 Hz psychomotor seizure test; type: functional, organism-based
Mus musculus [14] = assay: Anticonvulsant activity in F-1 albino mouse assessed as protection against 32 mA current-induced seizure at 30 mg/kg, ip pretreated at 0.5 hrs before current challenge by 6 Hz psychomotor seizure test; type: functional, organism-based
Mus musculus [15] = assay: Anticonvulsant activity in F-1 albino mouse assessed as protection against 32 mA current-induced seizure at 30 mg/kg, ip pretreated at 2 hrs before current challenge by 6 Hz psychomotor seizure test; type: functional, organism-based
Mus musculus [16] = assay: Anticonvulsant activity in ip dosed F-1 albino mouse assessed as protection against 32 mA current-induced seizure pretreated at 0.5 to 2 hrs by maximal electroshock seizure test; type: functional; conditions: F-1, ip
Mus musculus [17] = assay: Anticonvulsant activity in F-1 albino mouse assessed as protection against 32 mA current-induced seizure at 300 mg/kg, ip pretreated at 0.5 hrs before current challenge by 6 Hz psychomotor seizure test; type: functional, organism-based
Mus musculus [18] = assay: Anticonvulsant activity in F-1 albino mouse assessed as protection against 32 mA current-induced seizure at 300 mg/kg, ip pretreated at 2 hrs before current challenge by 6 Hz psychomotor seizure test; type: functional, organism-based
Mus musculus [19] = assay: Anticonvulsant activity in F-1 albino mouse assessed as protection against 32 mA current-induced seizure at 100 mg/kg, ip pretreated at 0.5 hrs before current challenge by 6 Hz psychomotor seizure test; type: functional, organism-based

| SMILES | Activity (Mus musculus [1]) | Activity [2] | Activity [3] | Activity [4] | Activity (Mus musculus [5]) | Activity (Mus musculus [6]) | Activity (Mus musculus [7]) | Activity (Mus musculus [8]) | Activity (Mus musculus [9]) | Activity [10] | Activity [11] | Activity [12] | Activity (Mus musculus [13]) | Activity (Mus musculus [14]) | Activity (Mus musculus [15]) | ED50 (Mus musculus [16]) | Activity (Mus musculus [17]) | Activity (Mus musculus [18]) | Activity (Mus musculus [19]) |
| --- | --- | --- | --- | --- | --- | --- | --- | --- | --- | --- | --- | --- | --- | --- | --- | --- | --- | --- | --- |
| O=C1C=C(NCc2cc(C(F)(F)F)cc(C(F)(F)F)c2)CC(C(F)(F)F)C1 (configuration not stated) | inactive | Non-Toxic | Non-Toxic | Non-Toxic | inactive | inactive | inactive | inactive | inactive | Non-Toxic | Non-Toxic | Non-Toxic | inactive | – | – | – | – | – | – |
| O=C1C=C(Nc2ccc(Br)cc2C(=O)O)CC(C(F)(F)F)C1 (configuration not stated) | inactive | Non-Toxic | Non-Toxic | Non-Toxic | inactive | inactive | – | inactive | inactive | Non-Toxic | Non-Toxic | Non-Toxic | inactive | inactive | inactive | – | – | – | – |
| O=C1C=C(NCc2cccc(C(F)(F)F)c2)CC(C(F)(F)F)C1 (configuration not stated) | inactive | Non-Toxic | Non-Toxic | Non-Toxic | inactive | inactive | – | inactive | inactive | Non-Toxic | Non-Toxic | Non-Toxic | – | inactive | inactive | – | – | – | – |
| COc1ccc(CNC2=CC(=O)CC(C(F)(F)F)C2)cc1 (configuration not stated) | inactive | Non-Toxic | Non-Toxic | Non-Toxic | inactive | inactive | inactive | inactive | inactive | Non-Toxic | Non-Toxic | Non-Toxic | – | inactive | inactive | – | – | – | – |
| O=C1C=C(Nc2ccc(Cl)cc2)CC(C(F)(F)F)C1 (configuration not stated) | – | – | Non-Toxic | – | – | – | – | – | – | Non-Toxic | – | – | – | – | – | 62.4 mg/kg | – | – | – |
| O=C1C=C(NCc2ccc(F)c(C(F)(F)F)c2)CC(C(F)(F)F)C1 (configuration not stated) | inactive | Non-Toxic | Non-Toxic | Non-Toxic | inactive | inactive | inactive | inactive | inactive | Non-Toxic | Non-Toxic | Non-Toxic | – | – | – | 23.5 mg/kg | Active | Active | – |
| O=C1C=C(NCc2ccc(Br)cc2)CC(C(F)(F)F)C1 (configuration not stated) | inactive | Non-Toxic | Non-Toxic | Non-Toxic | inactive | inactive | – | inactive | inactive | Non-Toxic | Non-Toxic | Non-Toxic | inactive | – | inactive | – | – | – | – |
| NC(=O)N1c2ccccc2C=Cc2ccccc21 [CARBAMAZEPINE] | – | – | – | – | – | – | – | – | – | – | – | – | – | – | – | 28.2 mg/kg | – | – | – |
| O=C1C=C(NCc2cccc(OC(F)(F)F)c2)CC(C(F)(F)F)C1 (configuration not stated) | Active | Non-Toxic | Non-Toxic | Non-Toxic | inactive | inactive | Active | inactive | – | Non-Toxic | Non-Toxic | Non-Toxic | inactive | – | inactive | – | – | – | inactive |
| O=C1C=C(NCc2cc(F)ccc2F)CC(C(F)(F)F)C1 (configuration not stated) | inactive | Non-Toxic | Non-Toxic | Non-Toxic | inactive | inactive | inactive | inactive | inactive | Non-Toxic | Non-Toxic | Non-Toxic | inactive | inactive | inactive | – | Active | Active | – |

— ChEMBL document CHEMBL4371027, “Design, synthesis and anticonvulsant evaluation of fluorinated benzyl amino enaminones” (Bioorg Med Chem, 2019)
